Laboratory results from patent US5866577A, “Aromatic amidine derivatives and salts thereof” (priority 1991, dated 1999).
Structures can show the parent of a compound that is named as a salt.

Columns and labels:
[1] = system: human blood plasma (clotting time); assay: Measurement of Anticoagulant Activity (plasma clotting time, CT2); type: biochemical; settings: concentration which doubles the control clotting time, 37° C.
Protocol: Measurement of Anticoagulant Activity A blood plasma sample was prepared from human blood using a centrifuge. […] Thereafter, clotting time was measured using CLOTEC (Sanko Junyaku Co., Ltd.). A clotting time measured without adding a compound to be tested was used as a control, and a concentration of the test compound which doubles the control clotting time was calculated (hereinafter referred to as "CT2") as an index of the anticoagulant activity.

[2] = Measurement of Solubility in Water
Protocol: A fixed amount of water was added to a varying amounts of each sample, and the mixture was agitated on a shaker at 25° C. for 10 minutes.
male Slc:SD rats [3] = assay: Toxicity Test by Single Oral Administration to Rat; settings: in vivo
[4] = system: thrombus formed on copper wire in arteriovenous shunt; assay: Antithrombotic Effect by Oral Administration to Rat in an Arteriovenous Shunt Model; type: in vivo, male STD:Wistar rat; settings: for Thrombus formed: mean ± S.E. (n = 6), p < 0.05 per control
Protocol: Antithrombotic Effect by Oral Administration to Rat in an Arteriovenous Shunt Model
Amtithrombotic effect by oral administration of the compound of the present invention was measured by slightly modifying the procedure disclosed in Thrombosis Research, vol. 54, pp. 399-410, 1989.
A predetermined amount of a compound to be tested was dissolved in purified water and administered orally to a male STD:Wistar rat, and the rat was anesthetized 15 minutes after the administration. An artery clip was attached to proximally the carotid artery of the thus anesthetized rat to stop blood circulation and to insert and fix an end of a shunt filled with physiological saline, while the other end of the shunt was inserted into the jugular vein and fixed. In this instance, the shunt was prepared by indwelling a copper wire (0.17 mm in diameter and 20 cm in length) in a polyethylene tube (Hibiki No. 5; 5/3 mm in outer diameter and 21 cm in length) and connecting each end of the tube with a polyethylene tube (Hibiki No. 3; 1 mm in outer diameter and 3 cm in length) using a 3 mm silicone tube. After 30 minutes of the administration, the artery clip was removed to flow blood into the shunt. After 7 minutes of the blood recirculation, the copper wire was pulled out together with formed thrombus and washed with 10 ml of physiological saline. Thereafter, the amount of thrombus formed on the copper wire was determined as protein in accordance with the procedure disclosed in Journal of Biological Chemistry, vol. 193, pp. 265-275, 1951. As a control, water was administered instead of the compound to be tested to calculate thrombosis inhibition rate after administration of the compound.

male Slc:SD rats [5] = assay: Toxicity Test by Repeated Oral Administration to Rat; type: in vivo; settings: oral 800 mg/kg once a day for 10 days, 5 rats administered
Protocol: Toxicity Test by Repeated Oral Administration to Rat
Each of the compounds of the present invention was dissolved in distilled water and administered orally to each of five five-week old male Slc:SD rats, at a dose of 800 mg/kg body weight. The oral administration was carried out once a day and repeated for 10 days to observe mortality.

anticoagulant effect = settings: oral; prior-art statement; cited from earlier work
FXa and thrombin = settings: prior-art statement; cited from earlier work
human FXa = human FXa (Homo sapiens, UniProt P00742); assay: Measurement of Activated Blood Coagulation Factor X (FXa) Inhibition Activity; type: biochemical; settings: substrate S-2222, 37° C., 15 minutes
Sequence of human FXa (P00742 235-488 limits assumed): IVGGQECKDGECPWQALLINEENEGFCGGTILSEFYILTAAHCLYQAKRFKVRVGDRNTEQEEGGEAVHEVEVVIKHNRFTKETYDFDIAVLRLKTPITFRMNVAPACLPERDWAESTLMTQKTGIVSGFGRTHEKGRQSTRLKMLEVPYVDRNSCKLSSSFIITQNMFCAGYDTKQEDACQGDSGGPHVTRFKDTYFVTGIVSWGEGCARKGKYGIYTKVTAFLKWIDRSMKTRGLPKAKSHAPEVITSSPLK
Sequence of human FXa (P00742 41-179 limits assumed): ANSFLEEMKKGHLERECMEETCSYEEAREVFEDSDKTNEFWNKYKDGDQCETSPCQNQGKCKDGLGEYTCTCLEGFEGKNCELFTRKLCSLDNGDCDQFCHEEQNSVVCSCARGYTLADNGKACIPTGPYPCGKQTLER
Protocol: Measurement of Activated Blood Coagulation Factor X (FXa) Inhibition Activity
A 180 μl portion of physiological saline solution containing a compound to be tested was mixed with 200 μl of Tris-HCl buffer (pH 8.4) and 100 μl of 1 mM S-2222 (KabiVitrum AB) aqueous solution, and the mixture was incubated at 37° C. 20 μl of Tris-HCl buffered saline (pH 7.45) containing 0.6 unit/ml of human FXa was added to the mixture. After 15 minutes of incubation at the same temperature, the reaction was stopped by adding 100 μl of 60% acetic acid, and absorbance of the reaction mixture was measured. A reaction mixture with no addition of a test compound was used as a blank, and another reaction mixture in which 60% acetic acid was added prior to the addition of FXa was used as a control.

[6] = prior-art statement; cited from earlier work
[7] = Solubility observed in preparation (solubility to any solvent); type: physicochemical; settings: hydrochloride monohydrate

Question: Which results are given for CC(=N)N1CC[C@H](Oc2ccc(C(Cc3ccc4ccc(C(=N)N)cc4c3)C(=O)O)cc2)C1.Cl.O.O.O.O.O (single isomer, unassigned; (+)) [Inventive Example 45]?
Answer: Anti-Coagulation CT2 [1]: 0.49 µM; solubility at 10 min [2]: ≥ 200 mg/mL; mortality (male Slc:SD rats [3]): No mortal case; Thrombosis inhibition ([4]; 10 mg/kg): 34%; Thrombus formed ([4]; 10 mg/kg): 585 ± 85 µg; Thrombosis inhibition ([4]; 30 mg/kg): 60%; Thrombus formed ([4]; 30 mg/kg): 356 ± 51 µg; Mortal Case (male Slc:SD rats [5]): 0

Question: For N=C(N)c1ccc2oc(CCc3cc4cc(C(=N)N)ccc4o3)cc2c1 [DABE, 1,2-bis(5-amidino-2-benzofuranyl)ethane, reference compound], which “anticoagulant effect when administered orally (in words)” value (anticoagulant effect) is on record?
Answer: Its value is “does not show its anticoagulant effect when administered orally”.

Question: And the “Anti-Coagulation CT2” value [1]?
Answer: The value was 1.6 µM.

Question: And the solubility at 10 min [2]?
Answer: Its solubility at 10 min is no more than 5 mg/mL.

Question: What about the “separation of FXa and thrombin inhibitory activities (in words)” value (FXa and thrombin) of the same molecule?
Answer: Its value is “cannot be separated sufficiently from each other”.

Question: What about the IC50 (human FXa) of the same molecule?
Answer: Its IC50 is 95 nM.

Question: And the “water solubility (in words)” value [6]?
Answer: Its value is “very low water solubility”.

Question: Which “solubility to any solvent (in words)” value [7] does the source give for Cl.N=C(N)c1ccc2ccc(CC(C(=O)O)c3ccc(OCC4CCNCC4)cc3)cc2c1.O (centres unmarked) [Inventive Example 18, 3-(7-amidino-2-naphthyl)-2-[4-[(4-piperidinyl)methoxy]-phenyl]propionic Acid Hydrochloride Monohydrate] here?
Answer: Its value is “very low”.

Question: Which results are given for Cl.Cl.N=C(N)c1ccc2oc(CC(C(=O)O)c3ccc(O[C@H]4CCNC4)cc3)cc2c1 (stereo partly drawn) [Inventive Example 19, 3-(5-amidino-2-benzofuranyl)-2-[4-[((3S)-3-pyrrolidinyl)-oxy]phenyl]propionic Acid Dihydrochloride]?
Answer: solubility at 10 min [2]: ≥ 450 mg/mL; Mortal Case (male Slc:SD rats [5]): 0

Question: For Cl.Cl.N=C(N)c1ccc2sc(CC(C(=O)O)c3ccc(O[C@H]4CCNC4)cc3)cc2c1 (stereo partly drawn) [Inventive Example 25, 3-(5-amidinobenzo[b]thien-2-yl)-2-[4-[((3S)-3-pyrrolidin-yl)oxy]phenyl]propionic Acid Dihydrochloride], which solubility at 10 min [2] is on record?
Answer: Its solubility at 10 min is no less than 500 mg/mL.

Question: And the “Mortal Case” value (male Slc:SD rats [5])?
Answer: The value was 0.

Question: Which “Mortal Case” value (male Slc:SD rats [5]) does the source give for CC(=N)N1CC[C@H](Oc2ccc(C(Cc3cc4cc(C(=N)N)ccc4s3)C(=O)O)cc2)C1 (stereo partly drawn) [Inventive Example 88, 2-[4-[((3S)-1-acetimidoyl-3-pyrrolidinyl)oxy]phenyl]-3-(5-amidinobenzo[b]thien-^2-yl)propionic Acid Dihydrochloride] here?
Answer: The value was 0.
